Source: article PMC5766581, “NF-κB inducing kinase is a therapeutic target for systemic lupus erythematosus” (Nature Communications, 2018)

Tests used:
[1] = tested on: IL-12p40 production from human monocyte derived DC; test: CD40L induced IL-12p40 production from human DCs; format: cell-based; conditions: human monocyte derived DC, rhCD40L; mean ± SD; read-out: CD40-induced IL-12 p40 IC50
Experimental: Human monocytes were enriched from whole blood (Monocyte enrichment RosetteSep, Stem Cell) followed by isolation using Monocyte Isolation Kit II (Miltenyi). Isolated monocytes were cultured (RPMI-10% FBS, penicillin/streptomycin, glutamine) with rhGM-CSF (100 ng/mL) and rhIL-4 (6.5 ng/mL) (R&D Systems) for 5 days with GM-CSF replacement on day 3. On Day 5 immature monocyte derived DCs were monitored for differentiation by flow cytometry ([…], CD83^low CD86^low CD209^+/hi). […] After 24 h plates were centrifuged and supernatants were removed for IL-12p40 cytokine measurement by ELISA (BD Biosciences). Plots and IC50 measurements were generated using GraphPad Prism software.

[2] = target: T1, mouse NIK (Mus musculus, UniProt Q9WUL6); test: NIK Transcreener ADP enzymatic assay; format: biochemical; conditions: mouse NIK enzymatic activity; mean ± SD
T1 construct: mouse NIK kinase domain (a.a. 329–675) (1 nM); made in house; host or cells: baculovirus-infected insect cells
T1 sequence (Q9WUL6 329-675): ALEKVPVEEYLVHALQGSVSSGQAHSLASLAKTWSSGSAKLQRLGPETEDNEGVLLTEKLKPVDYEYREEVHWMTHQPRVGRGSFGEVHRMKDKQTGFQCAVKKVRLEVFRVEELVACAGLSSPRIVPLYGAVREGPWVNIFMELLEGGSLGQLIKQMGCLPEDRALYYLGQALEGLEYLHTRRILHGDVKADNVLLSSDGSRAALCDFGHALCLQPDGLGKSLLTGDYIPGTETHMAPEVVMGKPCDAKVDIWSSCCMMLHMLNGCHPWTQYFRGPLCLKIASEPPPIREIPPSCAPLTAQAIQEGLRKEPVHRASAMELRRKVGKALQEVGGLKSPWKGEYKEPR

[3] = tested on: nuclear p52 (non-canonical NF-κB signaling); test: High content nuclear p52 imaging, anti-LTβR-stimulated HeLa cells; format: cell-based, human; conditions: anti-LTβR induced, mean ± SD
Experimental: (§1) The HeLa cell line was used to define the cellular selectivity of NIK inhibitors toward inhibition of classical vs. non-classical NF-κB signaling using high content cellular imaging assays. For the nuclear translocation assay p52 (non-canonical NF-κB signaling), HeLa cells were treated with different concentrations of compounds previously diluted in DMSO (final [DMSO] = 0.2% in all wells) in DMEM medium (10% FBS, 2 mM Glutamine) and then stimulated with 300 ng/mL of an anti-lymphotoxin beta receptor antibody for 4.5 h. In the REL-A nuclear translocation assay, HeLa cells were incubated with compounds for 4 h 50 min before stimulating them with 2 ng/mL TNF (R&D Systems) for 10 min. Cells were fixed with 4% paraformaldehyde, permeabilized by adding 0.1% Triton X-100 in phosphate buffered saline, and then are incubated with either 2 μg/mL anti-p52 antibody or 400 ng/mL anti-REL-A (p65) antibody. Finally, the cells are incubated with an Alexa488-labeled secondary antibody (Invitrogen) and DRAQ5 DNA stain (Biostatus). Imaging was carried out using an Opera reader (Perkin Elmer) and data were analyzed with Acapella software (Perkin Elmer). The p52 or REL-A translocation into the nucleus is quantified by the ratio of the nuclear to cytoplasmic signal intensity.

[4] = tested on: rhCD40L induced ICOSL expression on human B cells; test: ICOSL expression on human B cell assay; format: cell-based; conditions: ICOSL MFI by FACS, mean ± SD, read-out: CD40-induced ICOSL IC50
Experimental: Human B cells were isolated from whole blood. B cells were enriched by RosetteSep protocol (Stem Cell Technologies), and then isolated using Human B cell isolation kit II (Miltenyi). […] Mean fluorescent intensity (MFI) of CD40L and BAFF induced ICOSL expression was measured by flow cytometry on cells stained with anti-CD20 and anti-ICOSL, using a FACS Calibur instrument (BD). Plots and IC50 measurements were generated using GraphPad Prism Software.

[5] = tested on: human B cells; test: Human B cell rhCD40L proliferation assay; format: cell-based; conditions: thymidine incorporation, day four; read-out: Human B cell anti-CD40 proliferation IC50
[6] = tested on: nuclear RelA (canonical NF-κB signaling); test: High content nuclear RelA imaging, TNF-stimulated HeLa cells; format: cell-based, human; conditions: TNF induced
Experimental: as §1

[7] = tested on: human B cells; test: BAFF B cell survival assay (Cell Titer Glo); format: cell-based; conditions: BAFF induced; mean ± SD
Experimental: Human B cells were isolated using Miltenyi Human B cell isolation kit following ficoll separation of buffy coats. […] Mouse B cells were isolated from mouse spleen using Miltenyi mouse B cell isolation kit II. Cells were plated in Co-star 96-well plates at either 50,000 cells/well for the survival assays or at 150,000 cells/well for the proliferation assays. Compounds diluted in DMSO (final DMSO assay concentration = 0.1%) were added to the cells. The cells were incubated with compound for one hour at 37 °C. Stimulus was then added to the plates and survival or proliferation was measured after four days. For the proliferation assays, cells were treated with either Anti-IgM (20 μg/mL) or rhCD40L (10 μg/mL; R&D) or anti-mouse CD40 (100 ng/mL). Proliferation was measured using thymidine incorporation on day four. For the BAFF survival assay, cells were treated with human or mouse rBAFF (R&D Systems) at 10 ng/ml followed by Cell Titer Glo (Promega) to measure survival on day four.

[8] = tested on: mouse B cells; test: BAFF B cell survival assay (Cell Titer Glo); format: cell-based; conditions: BAFF induced; mean ± SD
[9] = tested on: human B cells; test: Human B cell anti-IgM proliferation assay; format: cell-based; conditions: thymidine incorporation, day four
[10] = tested on: Balb/c mice; test: TNP-OVA immunization model; format: in vivo, mouse; conditions: 300 mg/kg P.O. BID, 10 days
Text: Four to nine 8-week-old female Balb/c mice were randomized into experimental groups upon delivery from vendor. […] Investigators were not blinded to experimental samples.

IC50 [1]: 60.7 nM
Ki [2]: 0.84 nM
IC50 [3]: 43 nM
IC50 [4]: 58.7 nM
IC50 [6]: > 2000 nM
SMILES: CN1CC[C@@](O)(C#Cc2cccc(-n3nc(C(N)=O)c4ccccc43)c2)C1=O [NIK SMI2]
IC50 [5]: > 10 µM
IC50 [7]: 360 nM
IC50 [8]: 1750 nM
IC50 [9]: > 10 µM
germinal center B cell development and antigen-specific IgG1 production [10]: reduced
